Test results published in patent US8609650B2, “Bridged bicyclic aryl and bridged bicyclic heteroaryl substituted triazoles useful as Axl inhibitors” (Rigel Pharmaceuticals, Inc., priority 2006, dated 2013).

target: T1, Axl (Homo sapiens, UniProt P30530); assay: Phospho-Akt In-Cell Western Assay (ability to inhibit Axl activity); assay type: cell-based; details: Hela cells, stimulated by Axl-antibody cross-linking, phospho-Akt chemiluminescence normalized to relative cell number
T1 construct: endogenous in cells; host or cells: HeLa cells
T1 sequence (P30530 26-894): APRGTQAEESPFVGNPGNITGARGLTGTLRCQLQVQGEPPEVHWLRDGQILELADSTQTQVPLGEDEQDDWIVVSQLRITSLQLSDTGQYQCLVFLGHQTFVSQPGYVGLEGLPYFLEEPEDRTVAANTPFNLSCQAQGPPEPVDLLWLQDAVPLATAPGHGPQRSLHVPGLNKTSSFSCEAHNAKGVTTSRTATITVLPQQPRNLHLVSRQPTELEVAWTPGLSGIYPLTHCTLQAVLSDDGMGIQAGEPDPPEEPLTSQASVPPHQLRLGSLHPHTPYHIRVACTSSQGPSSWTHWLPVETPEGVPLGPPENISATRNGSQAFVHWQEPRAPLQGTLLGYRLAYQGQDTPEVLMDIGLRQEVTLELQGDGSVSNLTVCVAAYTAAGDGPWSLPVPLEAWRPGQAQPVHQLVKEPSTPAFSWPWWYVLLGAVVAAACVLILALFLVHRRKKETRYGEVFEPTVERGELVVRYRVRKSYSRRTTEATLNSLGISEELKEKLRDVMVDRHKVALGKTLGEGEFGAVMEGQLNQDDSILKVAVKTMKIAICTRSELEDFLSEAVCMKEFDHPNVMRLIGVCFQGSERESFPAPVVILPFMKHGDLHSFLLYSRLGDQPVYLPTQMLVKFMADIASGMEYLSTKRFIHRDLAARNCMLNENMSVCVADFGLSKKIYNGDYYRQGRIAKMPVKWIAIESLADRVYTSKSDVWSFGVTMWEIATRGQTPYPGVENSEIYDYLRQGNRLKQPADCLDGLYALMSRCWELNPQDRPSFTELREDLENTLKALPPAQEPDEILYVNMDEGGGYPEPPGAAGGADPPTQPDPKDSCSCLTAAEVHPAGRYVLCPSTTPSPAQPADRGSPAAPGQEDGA
Summary of the method: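 HeLa cells starved 24 h in 0.5% FCS with Axl/Fc 500 ng/mL, pre-treated 1 h at 37° C with compound, then stimulated 5 min by anti-Axl antibody cross-linking. Fixed cells probed for phospho-Akt with HRP secondary; chemiluminescence read.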

IC50 [nM]	Compound
< 1000	COC(=O)[C@@H]1CN(c2ccc(Nc3nc(N)n(-c4cc(-c5ccccc5)c5c(n4)C4CCN5CC4)n3)cc2F)CCN1CC1CC1 [Compound 65, 1-(1,4-ethano-8-phenyl-1,2,3,4-tetrahydro-1,5-naphthyridin-6-yl)-N^3-(3-fluoro-4-((3S)-3-methyloxycarbonyl-4-cyclopropylmethylpiperazin-1-yl)phenyl)-1H-1,2,4-triazole-3,5-diamine]
< 1000	Cc1cc(Nc2nc(N)n(-c3cc(-c4ccccc4)c4c(n3)C3CCN4CC3)n2)ccc1N1CCC(N2CCCC2)CC1 [Compound 68, 1-(1,4-ethano-8-phenyl-1,2,3,4-tetrahydro-1,5-naphthyridin-6-yl)-N^3-(3-methyl-4-(4-(pyrrolidin-1-yl)piperidin-1-yl)phenyl)-1H-1,2,4-triazole-3,5-diamine]
< 1000	Nc1nc(Nc2ccc3c(c2)CCC(N2CCC(N4CCCC4)CC2)CC3)nn1-c1cc(-c2ccccc2)c2c(n1)C1CCN2CC1 (centres unmarked) [Compound 71, 1-(1,4-ethano-8-phenyl-1,2,3,4-tetrahydro-1,5-naphthyridin-6-yl)-N^3-(7-(4-pyrrolidin-1-ylpiperidin-1-yl)-6,7,8,9-tetrahydro-5H-benzo[7]annulene-3-yl)-1H-1,2,4-triazole-3,5-diamine]
< 1000	Nc1nc(Nc2ccc3c(c2)CCC(N2CCCC2)CC3)nn1-c1cc(-c2ccccc2)c2c(n1)C1CCN2CC1 (centres unmarked) [Compound 72, 1-(1,4-ethano-8-phenyl-1,2,3,4-tetrahydro-1,5-naphthyridin-6-yl)-N^3-(7-pyrrolidin-1-yl-6,7,8,9-tetrahydro-5H-benzo[7]annulene-3-yl)-1H-1,2,4-triazole-3,5-diamine]

Further lines, the molecule ahead of its results:

Compound	IC50 [nM]
Nc1nc(Nc2ccc(N3CCN(CC4CC4)[C@H](C(=O)O)C3)c(F)c2)nn1-c1cc(-c2ccccc2)c2c(n1)C1CCN2CC1 [Compound 66, 1-(1,4-ethano-8-phenyl-1,2,3,4-tetrahydro-1,5-naphthyridin-6-yl)-N^3-(3-fluoro-4-((3S)-3-carboxy-4-cyclopropylmethylpiperazin-1-yl)phenyl)-1H-1,2,4-triazole-3,5-diamine]	< 1000
CN1CCC(c2ccc(Nc3nc(N)n(-c4cc(-c5ccccc5)c5c(n4)C4CCN5CC4)n3)cc2)CC1 [Compound 67, 1-(1,4-ethano-8-phenyl-1,2,3,4-tetrahydro-1,5-naphthyridin-6-yl)-N^3-(4-(1-methylpiperidin-4-yl)phenyl)-1H-1,2,4-triazole-3,5-diamine]	< 1000
Nc1nc(Nc2ccc3c(c2)CCC(=O)CC3)nn1-c1cc(-c2ccccc2)c2c(n1)C1CCN2CC1 [Compound 69, 1-(1,4-ethano-8-phenyl-1,2,3,4-tetrahydro-1,5-naphthyridin-6-yl)-N^3-(7-oxo-6,7,8,9-tetrahydro-5H-benzo[7]annulene-3-yl)-1H-1,2,4-triazole-3,5-diamine]	1000 to 10000
Nc1nc(Nc2ccc3c(c2)CCC(NC2CCCC2)CC3)nn1-c1cc(-c2ccccc2)c2c(n1)C1CCN2CC1 (centres unmarked) [Compound 70, 1-(1,4-ethano-8-phenyl-1,2,3,4-tetrahydro-1,5-naphthyridin-6-yl)-N^3-(7-cyclopentylamino-6,7,8,9-tetrahydro-5H-benzo[7]annulene-3-yl)-1H-1,2,4-triazole-3,5-diamine]	< 1000
